Source: ChEMBL document CHEMBL2384999, “Discovery of a potent, dual serotonin and norepinephrine reuptake inhibitor” (ACS Med Chem Lett, 2013)
pIC50, pKi: −log10 of the molar value. Calls of active or inactive are those of the source. No cut-off for these calls is given here.

How the values were obtained:
[1] = target: T1, Sodium-dependent serotonin transporter (Homo sapiens, UniProt P31645); assay: biochemical; format: cell-based, HEK293
Target sequence in this assay (P31645 whole entry): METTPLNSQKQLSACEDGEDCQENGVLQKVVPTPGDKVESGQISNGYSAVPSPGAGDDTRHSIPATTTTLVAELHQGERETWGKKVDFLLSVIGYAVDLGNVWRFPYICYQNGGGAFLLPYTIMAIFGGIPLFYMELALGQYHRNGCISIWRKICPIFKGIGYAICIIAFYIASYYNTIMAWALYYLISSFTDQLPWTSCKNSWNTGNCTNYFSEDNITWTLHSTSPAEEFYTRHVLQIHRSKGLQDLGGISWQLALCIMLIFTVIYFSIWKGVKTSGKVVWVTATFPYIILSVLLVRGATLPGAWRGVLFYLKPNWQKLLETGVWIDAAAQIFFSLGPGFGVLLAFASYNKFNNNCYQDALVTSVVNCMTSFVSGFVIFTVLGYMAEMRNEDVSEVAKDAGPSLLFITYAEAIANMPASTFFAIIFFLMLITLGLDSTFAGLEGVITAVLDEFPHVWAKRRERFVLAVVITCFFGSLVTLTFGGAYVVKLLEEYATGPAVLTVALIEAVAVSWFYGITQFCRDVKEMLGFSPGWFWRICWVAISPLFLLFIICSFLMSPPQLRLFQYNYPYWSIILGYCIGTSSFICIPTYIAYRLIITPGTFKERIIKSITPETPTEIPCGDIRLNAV
Description: Displacement of [3H]citalopram from human SERT transfected in HEK293 cells after 3 hrs by Wallac counting analysis

[2] = target: Sodium-dependent dopamine transporter (Homo sapiens, UniProt Q01959); assay: biochemical
Description: Displacement of [3H]WIN35428 from human DAT transfected in HEK293 cells after 3 hrs by Wallac counting analysis

[3] = Volume of distribution at steady state in rat at 1 mg/kg, iv; format: ADME, organism-based; design: dose 1 mg/kg, route intravenous; details: in vivo, read-out: Vdss
[4] = Half life in rat at 1 mg/kg, iv; format: ADME, organism-based; design: dose 1 mg/kg, route intravenous; details: in vivo
[5] = Tmax in dog at 1 mg/kg, po; format: ADME, organism-based, Canis lupus familiaris; design: dose 1 mg/kg, route oral; details: in vivo
[6] = Cmax in rat at 1 mg/kg, po; format: ADME, organism-based; design: dose 1 mg/kg, route oral; details: in vivo
[7] = tested on: Rattus norvegicus; assay: Neurotoxicity in Sprague-Dawley rat at 100 mg/kg, po by rotorod test; format: toxicity, organism-based; design: dose 100 mg/kg, route oral; details: in vivo
[8] = Clearance in rat at 1 mg/kg, iv; format: ADME, organism-based; design: dose 1 mg/kg, route intravenous; details: in vivo
[9] = Serum protein binding in human; format: ADME, cell-free; details: read-out: PB (converted)
[10] = Tmax in rat at 1 mg/kg, po; format: ADME, organism-based; design: dose 1 mg/kg, route oral; details: in vivo
[11] = target: CYP2D6 (Homo sapiens, UniProt P10635); assay: Inhibition of CYP2D6 (unknown origin) at 10 uM; format: ADME
[12] = Clearance in dog at 1 mg/kg, iv; format: ADME, organism-based, Canis lupus familiaris; design: dose 1 mg/kg, route intravenous; details: in vivo
[13] = target: CYP3A4 (Homo sapiens, UniProt P08684); assay: Inhibition of CYP3A4 (unknown origin) at 10 uM; format: ADME
[14] = tested on: Plasma; assay: Drug uptake in Sprague-Dawley rat plasma at 10 mg/kg, po; format: ADME, organism-based; design: dose 10 mg/kg, route oral; details: in vivo
[15] = Cmax in dog at 1 mg/kg, po; format: ADME, organism-based, Canis lupus familiaris; design: dose 1 mg/kg, route oral; details: in vivo
[16] = species on record: Rattus norvegicus; assay: animal or person; details: po
[17] = Ratio of drug uptake in brain to plasma in Sprague-Dawley rat at 10 mg/kg, po; format: ADME, organism-based; design: dose 10 mg/kg, route oral; details: read-out: BPR
[18] = target: Cytochrome P450 3A4 (Homo sapiens, UniProt P08684); assay: Inhibition of CYP3A4 (unknown origin); format: ADME
[19] = target: Cytochrome P450 2C9 (Homo sapiens, UniProt P11712); assay: Inhibition of CYP2C9 (unknown origin); format: ADME
[20] = target: Cytochrome P450 2D6 (Homo sapiens, UniProt P10635); assay: Inhibition of CYP2D6 (unknown origin); format: ADME
[21] = AUC (0 to infinity) in rat at 1 mg/kg, iv; format: ADME, organism-based; design: time infinity, dose 1 mg/kg, route intravenous; details: plasma
[22] = tested on: Brain; assay: Drug uptake in Sprague-Dawley rat brain at 10 mg/kg, po; format: ADME, organism-based; design: dose 10 mg/kg, route oral; details: in vivo, read-out: Drug uptake
[23] = Metabolic stability in rat liver microsomes after 30 mins by LC-ESI/MS analysis; format: ADME, Microsome; details: read-out: Stability
[24] = AUC (0 to infinity) in dog at 1 mg/kg, po; format: ADME, organism-based, Canis lupus familiaris; design: time infinity, dose 1 mg/kg, route oral; details: plasma
[25] = AUC (0 to infinity) in rat at 1 mg/kg, po; format: ADME, organism-based; design: time infinity, dose 1 mg/kg, route oral; details: plasma
[26] = target: Sodium-dependent serotonin transporter (Rattus norvegicus, UniProt P31652)
Description: Displacement of [3H]-citalopram from Sprague-Dawley rat brain SERT after 1 hr

[27] = Volume of distribution at steady state in dog at 1 mg/kg, iv; format: ADME, organism-based, Canis lupus familiaris; design: dose 1 mg/kg, route intravenous; details: in vivo, read-out: Vdss
[28] = Oral bioavailability in rat at 1 mg/kg; format: ADME, organism-based; details: in vivo
[29] = Metabolic stability in dog liver microsomes after 30 mins by LC-ESI/MS analysis; format: ADME, Canis lupus familiaris, Microsome; details: read-out: Stability
[30] = species on record: Rattus norvegicus; assay: animal or person; details: Sprague-Dawley, po, 2 h
Description: (§1) In vivo SERT receptor occupancy in po dosed Sprague-Dawley rat brain cortex after 2 hrs in presence of DASB

[31] = target: CYP2C9 (Homo sapiens, UniProt P11712); assay: Inhibition of CYP2C9 (unknown origin) at 10 uM; format: ADME
[32] = AUC (0 to infinity) in dog at 1 mg/kg, iv; format: ADME, organism-based, Canis lupus familiaris; design: dose 1 mg/kg, route intravenous, time infinity; details: plasma
[33] = Metabolic stability in human liver microsomes after 30 mins by LC-ESI/MS analysis; format: ADME, Microsome; details: read-out: Stability
[34] = Oral bioavailability in dog at 1 mg/kg; format: ADME, organism-based, Canis lupus familiaris; details: in vivo
[35] = target: T2, Cytochrome P450 1A2 (Homo sapiens, UniProt P05177); assay: Inhibition of CYP1A2 (unknown origin); format: ADME
T2 sequence (P05177 whole entry): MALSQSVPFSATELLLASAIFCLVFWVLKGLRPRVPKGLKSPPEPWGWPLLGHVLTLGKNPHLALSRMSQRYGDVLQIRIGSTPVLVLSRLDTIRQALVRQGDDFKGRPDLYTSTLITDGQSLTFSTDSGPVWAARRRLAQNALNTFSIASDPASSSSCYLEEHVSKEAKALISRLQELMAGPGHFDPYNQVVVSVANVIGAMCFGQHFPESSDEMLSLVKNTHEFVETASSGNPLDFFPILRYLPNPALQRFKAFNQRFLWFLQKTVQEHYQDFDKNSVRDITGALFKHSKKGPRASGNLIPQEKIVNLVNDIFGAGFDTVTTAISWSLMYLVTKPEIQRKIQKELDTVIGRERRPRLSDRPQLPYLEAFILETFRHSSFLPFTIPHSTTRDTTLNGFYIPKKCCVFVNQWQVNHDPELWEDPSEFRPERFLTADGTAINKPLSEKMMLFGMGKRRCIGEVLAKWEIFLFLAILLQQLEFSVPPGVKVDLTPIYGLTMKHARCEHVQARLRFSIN

[36] = Half life in dog at 1 mg/kg, iv; format: ADME, organism-based, Canis lupus familiaris; design: dose 1 mg/kg, route intravenous; details: in vivo
[37] = tested on: Rattus norvegicus; details: Sprague-Dawley
Description: as §1

[38] = tested on: Rattus norvegicus
[39] = target: T1, Sodium-dependent serotonin transporter; assay: Inhibition of human SERT transfected in HEK293 cells assessed as inhibition of [3H]serotonin uptake incubated 30 mins prior to substrate addition measured after 1 minute 50 secs; format: cell-based
Target sequence in this assay (P31645 whole entry, looked up): as the sequence (P31645 whole entry) above

Sodium-dependent dopamine transporter, sequence (Q01959 whole entry): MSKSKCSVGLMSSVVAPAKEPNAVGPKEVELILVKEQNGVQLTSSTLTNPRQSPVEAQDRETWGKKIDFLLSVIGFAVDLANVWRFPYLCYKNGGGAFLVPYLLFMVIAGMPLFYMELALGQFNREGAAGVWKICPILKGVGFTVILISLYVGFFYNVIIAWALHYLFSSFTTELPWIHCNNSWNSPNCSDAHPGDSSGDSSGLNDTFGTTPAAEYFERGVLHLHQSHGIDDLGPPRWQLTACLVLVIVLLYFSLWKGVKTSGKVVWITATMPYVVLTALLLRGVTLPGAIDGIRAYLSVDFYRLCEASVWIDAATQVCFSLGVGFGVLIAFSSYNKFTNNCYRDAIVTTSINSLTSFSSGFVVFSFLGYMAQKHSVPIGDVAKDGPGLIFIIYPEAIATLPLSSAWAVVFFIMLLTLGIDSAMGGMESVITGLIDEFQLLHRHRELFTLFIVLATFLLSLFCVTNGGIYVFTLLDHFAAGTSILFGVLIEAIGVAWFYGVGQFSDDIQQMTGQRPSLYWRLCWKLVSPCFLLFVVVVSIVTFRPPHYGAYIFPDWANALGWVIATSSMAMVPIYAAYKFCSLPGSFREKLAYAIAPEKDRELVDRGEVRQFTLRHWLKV
Sodium-dependent serotonin transporter (Rattus norvegicus, UniProt P31652), sequence (P31652 whole entry): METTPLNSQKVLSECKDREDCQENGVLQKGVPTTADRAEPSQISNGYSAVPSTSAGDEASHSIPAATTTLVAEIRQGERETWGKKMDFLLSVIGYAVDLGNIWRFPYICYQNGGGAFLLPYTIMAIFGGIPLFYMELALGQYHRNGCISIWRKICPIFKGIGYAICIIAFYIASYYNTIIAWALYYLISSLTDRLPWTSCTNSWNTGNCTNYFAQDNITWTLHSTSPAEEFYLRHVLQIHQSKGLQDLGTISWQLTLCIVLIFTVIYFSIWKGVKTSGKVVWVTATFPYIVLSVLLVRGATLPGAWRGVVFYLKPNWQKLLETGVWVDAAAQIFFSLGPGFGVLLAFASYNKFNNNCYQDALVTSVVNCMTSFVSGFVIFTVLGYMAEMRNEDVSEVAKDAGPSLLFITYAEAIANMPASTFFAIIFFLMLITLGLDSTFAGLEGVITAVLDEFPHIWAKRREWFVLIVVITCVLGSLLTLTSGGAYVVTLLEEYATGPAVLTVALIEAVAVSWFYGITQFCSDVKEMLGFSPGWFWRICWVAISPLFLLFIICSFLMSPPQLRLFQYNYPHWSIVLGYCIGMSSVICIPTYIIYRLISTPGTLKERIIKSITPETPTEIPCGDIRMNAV
CYP2C9, sequence (P11712 whole entry): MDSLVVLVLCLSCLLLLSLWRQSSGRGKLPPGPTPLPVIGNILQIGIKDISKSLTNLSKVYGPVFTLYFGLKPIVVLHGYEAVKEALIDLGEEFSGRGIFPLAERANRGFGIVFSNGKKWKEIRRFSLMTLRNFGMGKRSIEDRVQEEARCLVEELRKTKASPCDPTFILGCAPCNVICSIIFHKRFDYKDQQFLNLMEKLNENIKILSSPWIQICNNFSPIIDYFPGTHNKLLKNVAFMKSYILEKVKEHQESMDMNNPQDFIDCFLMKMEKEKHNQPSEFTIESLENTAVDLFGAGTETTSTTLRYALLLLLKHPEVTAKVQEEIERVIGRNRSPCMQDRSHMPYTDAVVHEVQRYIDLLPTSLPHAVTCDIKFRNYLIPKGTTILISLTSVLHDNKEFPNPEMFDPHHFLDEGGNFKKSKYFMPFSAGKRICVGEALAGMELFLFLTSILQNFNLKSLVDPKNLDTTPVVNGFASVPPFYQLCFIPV
Cytochrome P450 2C9, sequence (P11712 whole entry): as above
CYP2D6, sequence (P10635 whole entry): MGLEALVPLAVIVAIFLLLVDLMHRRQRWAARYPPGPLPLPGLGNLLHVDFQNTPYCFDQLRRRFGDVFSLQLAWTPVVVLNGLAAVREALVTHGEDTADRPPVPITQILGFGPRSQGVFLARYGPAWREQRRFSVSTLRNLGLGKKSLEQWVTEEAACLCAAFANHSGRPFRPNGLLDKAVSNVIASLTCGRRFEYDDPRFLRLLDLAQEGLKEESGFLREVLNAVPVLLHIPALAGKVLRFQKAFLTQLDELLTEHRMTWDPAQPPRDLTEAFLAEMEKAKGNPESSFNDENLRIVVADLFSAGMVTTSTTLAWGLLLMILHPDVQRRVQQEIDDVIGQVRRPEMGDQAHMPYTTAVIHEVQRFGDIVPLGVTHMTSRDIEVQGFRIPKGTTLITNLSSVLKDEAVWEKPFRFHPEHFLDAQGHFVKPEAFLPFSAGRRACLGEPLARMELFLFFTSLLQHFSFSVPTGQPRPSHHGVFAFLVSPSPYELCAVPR
Cytochrome P450 2D6, sequence (P10635 whole entry): as above
Cytochrome P450 3A4, sequence (P08684 whole entry): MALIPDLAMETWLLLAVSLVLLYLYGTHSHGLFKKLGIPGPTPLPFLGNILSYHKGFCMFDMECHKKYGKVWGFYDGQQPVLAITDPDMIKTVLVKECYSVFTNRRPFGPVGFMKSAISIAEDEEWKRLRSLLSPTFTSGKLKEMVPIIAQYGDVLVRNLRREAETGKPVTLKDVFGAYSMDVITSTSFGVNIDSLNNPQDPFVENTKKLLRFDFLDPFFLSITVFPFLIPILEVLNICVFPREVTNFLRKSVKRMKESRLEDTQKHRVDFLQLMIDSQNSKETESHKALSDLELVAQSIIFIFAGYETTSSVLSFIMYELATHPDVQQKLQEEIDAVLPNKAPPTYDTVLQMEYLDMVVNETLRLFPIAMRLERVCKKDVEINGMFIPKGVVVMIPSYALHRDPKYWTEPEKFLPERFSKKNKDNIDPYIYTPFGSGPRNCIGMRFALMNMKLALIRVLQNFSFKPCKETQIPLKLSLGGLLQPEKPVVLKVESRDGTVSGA
CYP3A4, sequence (P08684 whole entry): as above

COc1ccc(O[C@@H](CC(C)C)[C@H]2CCNC2)c(C)n1 (stereo in doubt; form 1)
pKi [1]: 9.66
pKi [2]: 6.32

COc1ccc(O[C@@H](CC(C)C)[C@@H]2CCNC2)c(C)n1
pKi [1]: 9.08
pKi [2]: < 6.05

COc1ccc(O[C@@H](CC(C)C)[C@H]2CCNC2)c(C)n1 [listing 1 of 2 here]
Vd [3]: 7.6 L/kg
half-life [4]: 0.84 h
Tmax [5]: 1.3 h
Cmax [6]: 65 nM
Activity [7]: Non-toxic
clearance [8]: 120 mL/min/kg
fraction unbound [9]: 0.43
Tmax [10]: 1.3 h
inhibition at 10 µM [11]: < 30%
clearance [12]: 8.2 mL/min/kg
inhibition at 10 µM [13]: < 30%
concentration [14]: 146 nM
pIC50 [1]: 8.72
Cmax [15]: 503 nM
ED80 [16]: 6.8 mg/kg
Kp [17]: 3
pIC50 [18]: < 5.00
pIC50 [19]: < 5.00
pIC50 [20]: < 5.00
AUC(0-inf) [21]: 0.6 µM·h
concentration [22]: 450 nM
remaining at 0.5 h [23]: 92%
AUC(0-inf) [24]: 4.13 µM·h
AUC(0-inf) [25]: 0.251 µM·h
pKi [26]: 9.80
Vd [27]: 1.8 L/kg
bioavailability [28]: 31%
remaining at 0.5 h [29]: 57%
ED80 [30]: 10.6 mg/kg
inhibition at 10 µM [31]: < 30%
AUC(0-inf) [32]: 8.09 µM·h
remaining at 0.5 h [33]: 28%
bioavailability [34]: 47%
pIC50 [35]: < 5.00
half-life [36]: 4.6 h

COc1ccc(O[C@@H](CC(C)C)[C@H]2CCNC2)c(C)n1 (stereo in doubt; form 2)
pKi [1]: 9.68
pKi [2]: 6.45

COc1ccc(O[C@H](CC(C)C)[C@H]2CCNC2)c(C)n1
pKi [2]: < 6.05

COc1ccc(O[C@H](CC(C)C)[C@@H]2CCNC2)c(C)n1
pKi [1]: 9.12
pKi [2]: < 6.05

COc1ccc(O[C@@H](CC(C)C)[C@H]2CCNC2)c(C)n1 [listing 2 of 2 here]
Activity [37]: Dose-dependent effect
inhibition [38]: Dose-dependent effect
inhibition [39]: Active

CCN(CC)C(=O)C1(c2ccccc2)CC1CN (stereo not drawn)
pKi [26]: 7.57
